Entries after “also recorded” stand apart in the source; their conditions may differ.
Columns and labels:
[1] = system: EUFA423F cells; experiment: CellTiter-Glo cell viability, BRCA2-mutated cells; format: cell-based, human; settings: for toxicity towards EUFA423 cells: BRCA2-mutated cells, yes/no; for toxicity / selective toxicity towards BRCA2-mutated cells in cell viability assays: EUFA423F versus EUFA423F HA
Excerpt: Cell lines: EUFA423F cells that are derived from a Fanconi Anemia patient with complementation group D1 and have biallelic mutations (7691 insAT and 9900 insA) in BRCA2 that result in two different truncated forms of BRCA2 (Howlett N G, et al., Science (New York, NY). 2002; 297(5581):606-9) and its counterpart complemented with expression vector for full-length BRCA2 (EUFA HA) were a generous gift from Dr. Simon Powell, Molecular Biology Program, Radiation Oncology, Sloan-Kettering Cancer Center, New York, NY).
Cell proliferation assay: Selective toxicity of the compounds towards human BRCA2 deficient cells was tested in EUFA423F and its complement EUFA423F HA using CellTiter-Glo® Luminescent Cell Viability Assay (Promega, Madison, WI). The cell lines were maintained in DMEM (Gibco/ThermoFisher Scientific, Waltham, MA) supplemented with 10% FBS and 10 mM HEPES (Gibco/ThermoFisher Scientific, Waltham, MA). EUFA423F HA cells were routinely supplemented with G418 in order to maintain the BRCA2 expression plasmid. Both cell lines were seeded in sterile tissue culture treated, white opaque 384-well plates (Perkin Elmer Inc., Waltham, MA) 3000 cells/well for EUFA423F HA and 2500 cells/well for EUFA423F) and allowed to adhere for 24 hours. Compounds dissolved in DMSO were added in the concentration range of 0-100 μM. Controls were treated with equivalent DMSO volumes. The cells were treated with compounds for 72 hours (to ensure that all cells experienced at least two S-phases). Post treatment, the cells were washed, treated with the CellTiter-Glo® reagent was added and the plate was analyzed as using a Gen5 (ver2.1) luminosity plate reader. The luminescence that reports on ATP generation by the surviving cells was normalized for the DMSO treated control as 100%. The normalized luminescence (average±standard deviation for at least three independent measurements obtained with different cell passages) was plotted in GraphPad Prism as a function of compound concentration. Clonogenic Survival: EUFA423F and EUFA423F HA cells were seeded in a 96 well plate. Compounds dissolved in DMSO were added to final concentrations of 0, 50, and 100 μM for the compound of Example 8 and the compound of Example 1, and 0, 5, and 10 μM for the compounds of Examples 2-7. The cells were treated with compounds for 72 hours. Post treatment, cell cultures were harvested by collecting all non-adherent cells in the well, trypsinization of all adherent cells, combining, pelleting and then resuspending in fresh media. Cultures treated with DMSO only were subsequently counted using a hemocytometer and plated at a density of 2000, 200 and 20 cells per well in 6-well culture plates, equal volumes of cultures were plated each inhibitor concentration. Each treatment and cell density conditions for both cell lines were plated in triplicate. After expanding the colonies for a period of 8 days, cultures were fixed with a solution of 70% ethanol and crystal violet for clonogenic survival analysis. Pictures of individual wells were taken using GelCount (Version 1.3.0.4) by Oxford Optronix (Abingdon UK). A colony had to contain at least 50 cells to be counted. The number of surviving colonies following treatment are presented as a percentage of number of colonies in the experiment where the cells were treated with DMSO only.

[2] = Solubility in cell culture medium; format: physicochemical; settings: plasma or biological fluid

Row | SMILES | toxicity towards EUFA423 cells [1] | toxicity / selective toxicity towards BRCA2-mutated cells in cell viability assays ([1]; CellTiter-Glo, 72 hours, listed as Z99) | solubility [2] [µM] | toxicity / selective toxicity towards BRCA2-mutated cells in cell viability assays ([1]; CellTiter-Glo, 72 hours, listed as Z56) | IC50 ([1]; Homo sapiens, CellTiter-Glo, 72 hours, read-out: IC50 value for the EUFA423F viability experiments) [µM]
1 | O=C(Cn1cccc([N+](=O)[O-])c1=O)c1c[nH]c2ccccc12 [Example 1] | yes | selectively toxic; also recorded: shows toxicity towards BRCA2-mutated cells | > 100 | – | –
2 | COc1ccccc1NS(=O)(=O)c1cc(C(=O)O)ccc1C [Example 8] | yes | – | – | toxicity only towards BRCA2 mutant cells; also recorded: selectively toxic to BRCA2-mutated cells | 32 ± 12.1

Reference: US20260193227A1, “THERAPEUTIC COMPOUNDS AND METHODS” (UNIVERSITY OF IOWA RESEARCH FOUNDATION, priority 2022, published 2026)
